In patent US10175256B2, “Compositions and methods utilizing lysophosphatidylcholine scaffolds” (National University Of Singapore, priority 2013, dated 2019):

Columns and labels:
[1] = biological target: T1, mouse Mfsd2a (Mus musculus, UniProt Q9DA75); assay: In vitro transport (uptake) of radiolabeled and fluorescent LPCs in HEK293 cells overexpressing Mfsd2a; format: cell-based
T1 construct: expressed in transfected cells; host or cells: HEK293
T1 sequence (Q9DA75 1-534): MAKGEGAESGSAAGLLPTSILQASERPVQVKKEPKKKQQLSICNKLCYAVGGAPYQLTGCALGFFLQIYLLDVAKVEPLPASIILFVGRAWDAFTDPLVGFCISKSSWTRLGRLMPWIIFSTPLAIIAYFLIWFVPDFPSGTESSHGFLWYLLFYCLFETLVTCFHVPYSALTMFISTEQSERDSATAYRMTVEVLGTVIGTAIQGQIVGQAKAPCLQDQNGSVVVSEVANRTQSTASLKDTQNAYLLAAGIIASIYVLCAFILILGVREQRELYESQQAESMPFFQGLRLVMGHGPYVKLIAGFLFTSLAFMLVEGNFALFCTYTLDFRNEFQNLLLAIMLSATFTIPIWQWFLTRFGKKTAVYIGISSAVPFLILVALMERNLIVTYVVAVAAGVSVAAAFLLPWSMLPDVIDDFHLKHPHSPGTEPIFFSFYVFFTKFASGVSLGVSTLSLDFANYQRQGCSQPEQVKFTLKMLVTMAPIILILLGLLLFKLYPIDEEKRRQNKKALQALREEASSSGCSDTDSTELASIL
Method: Uptake assays of radiolabeled LPCs or fluorescent LPCs were tested using HEK293 cells overexpressing Mfsd2a and mutants constructs. Briefly, HEK293 cells at 90-95% confluency were transfected using LIPOFECTAMINE 2000 (Invitrogen) with pcDNA3.1Mfsd2a (WT), pcDNA3.1Mfsd2aD92A (D92A), pcDNA3.1Mfsd2aD96A (D96A), or pcDNA3.1 (mock) plasmids. Uptake assays were performed after 24 hours of transfections. Prior to ligand incubation, HEK293 transfected cells were washed with serum-free DMEM before assays. For concentration and time dependent assays, radiolabeled LPCs were diluted in pre-warmed DMEM media. For sodium dependent assay, radiolabeled LPCs were diluted in transport buffer (5 mM KCl, 10 mM Hepes, pH 7.4) with 150 mM NaCl or 150 mM choline chloride. For sodium concentration dependent assays, any reductions in the concentration of NaCl were replaced by choline chloride in order to maintain a constant cation molarity of 150 mM. All assays were performed in 12 well-plates with triplicates and at 37° C.

[2] = biological target: T1, mouse Mfsd2a; assay: TLC analysis of phospholipids (bio-incorporation of LPC into PC); format: cell-based; details: TLC
Method: HEK293 cells overexpressing with pcDNA3.1Mfsd2a (WT), pcDNA3.1Mfsd2aD92A (D92A), pcDNA3.1Mfsd2aD96A, or pcDNA3.1 (mock) plasmids or human Mfsd2a (in Sport6 plasmid) were washed once with serum-free DMEM medium before incubation with 50 μM radiolabeled LPC [^14C]oleate, LPC [^14C]DHA or with 50 μM TopFluor-LPC and NBD-LPC. Lipids were extracted twice with HIP buffer for 30 mins. Lipids were dried with nitrogen stream and reconstituted in chloroform and spotted on TLC plates (Milipore). Solvent for phospholipid separation was chloroform/methanol/ammonia solution (25%) (50:25:6, per volume). TLC plates of radiolabeled phospholipids were dried for 30 mins and exposed overnight to Phosphorscreens and scanned with Typhoon FLA 9000 scanner (Agilent). TLC plates of fluorescent phospholipids were scanned with Typhoon FLA 9000 scanner and quantified using Imagequant software.

[3] = Blood LPC [14C]-oleate analysis; format: in vivo, mice; details: intravenous, 2 hrs post-injection
Method: Mfsd2a KO and WT mice were injected intravenously with 100 μM radioactive labeled LPC [^14C]-oleate. 10 μl of blood samples were collected after 2 min (initial dose) and after 2 hr from tail vein, and radioactivity was quantified by scintillation counting. The amount of plasma LPC [^14C]-oleate in the KO mice was expressed as ratio to the WT at each time point.

[4] = biological target: T2, Mfsd2a (Mus musculus, UniProt Q9DA75); assay: In vivo transport of radiolabeled, fluorescent LPCs and unesterified DHA in Mfsd2a KO and wild-type mice; parameters: from tissue; host or cells: living mice; brain (blood-brain barrier endothelium), liver, heart; fetal brain; details: i.v. injection, 2 hrs post-injection, radiolabel
T2 sequence (Q9DA75 1-534): T1 sequence (Q9DA75 1-534)
Method: Male and female mice of age of 6-8 weeks were IV injected with 75 μl of 20 mM radiolabeled LPC-[…], 100 μl of 10 mM LPC-[^14C]DHA/BSA complex or 82 μl of 12.2 mM [^14C]DHA/BSA complex in a total volume of 150 μl of phosphate-buffered saline. At 2 hours post injection, mice were anesthetized and perfused for 5 mins with PBS containing 0.5% BSA in order to remove blood and lipid tracer bound to the brain vasculature. Tissues were harvested for lipid extraction. For lipid extraction, tissues were weighed and similar amounts of tissues were homogenized in chloroform/methanol. Lipids from the organic phase were mixed with scintillant and scintillation counted. Similar experiments were also performed with an injection of 300 μg NBD-LPC/BSA or 300 μg TopFluor-LPC/BSA complex per mouse. In this experiment, mice were perfused for 5 mins with PBS followed 15 mins perfusion with 4% paraformaldehyde (PFA) for tissue fixation. Brain sections of WT and KO with a thickness of 40 μm were prepared and scanned using green fluorescence mode in Typhoon FLA 9000 scanner (Agilent). NBD-LPC accumulation was expressed as fluorescence of each section per its area. Dietary DHA transport from mother to fetus was also measured using [^14C]DHA/BSA complex. Pregnant females at e18.5 was gavaged with bolus of [^14C]DHA/BSA complex (200 μl of 10 mM [^14C]DHA/BSA/mouse). Brain of fetuses were collected 20 hours post-gavage and weighed. Lipid extraction and radioactivity were performed as described above.

uptake of radiolabeled LPC by cells expressing Mfsd2a relative to control cells ([1]; HEK293 cells, wild-type Mfsd2a vs mock, LPC/BSA, 30 mins): concentration-dependent uptake | net uptake of LPC ligand (PC mass) ([2]; 100 μM unlabeled LPC-oleate, 1 hour): Increased net uptake | plasma level of injected tracer in KO mice relative to WT [3]: increased levels | brain uptake in KO mice relative to wild-type [4]: markedly reduced
SMILES: CCCCCCCCC=CCCCCCCCC(=O)OC[C@@H](O)COP(=O)([O-])OCC[N+](C)(C)C [LPC-[^14C]oleate, 1-oleoyl 2-lysophosphocholine]
comparison of Mfsd2a-mediated uptake (capacity to transport) ([1]; HEK293 cells expressing Mfsd2a): highest capacity to transport LPC-DHA, followed by LPC-oleate, and LPC-palmitate | conversion of transported LPCs into PCs ([2]; HEK293 cells expressing Mfsd2a, radiolabeled LPC): rapid conversion of transported LPCs into PCs
